Results published in PMC1618416, “The Liganding of Glycolipid Transfer Protein Is Controlled by Glycolipid Acyl Structure” (PLoS Biology, 2006).

Legend:
Assay type in all cases: binding
[1] = target: T1, glycolipid transfer protein (GLTP) (Homo sapiens, UniProt Q9NZD2); assay: X-ray crystal structure; tryptophan fluorescence Kd; set-up: recombinant human GLTP, His6- and S-tags removed by Factor Xa
T1 sequence (Q9NZD2 2-209): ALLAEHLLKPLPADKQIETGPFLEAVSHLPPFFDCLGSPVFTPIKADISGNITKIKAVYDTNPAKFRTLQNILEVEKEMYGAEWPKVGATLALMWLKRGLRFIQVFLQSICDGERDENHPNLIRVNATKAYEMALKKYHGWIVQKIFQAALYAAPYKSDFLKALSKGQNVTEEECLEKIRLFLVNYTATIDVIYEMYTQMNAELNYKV

[2] = target: T1, glycolipid transfer protein (GLTP); assay: tryptophan fluorescence Kd (crystal structure 1SX6 from earlier paper); set-up: recombinant human GLTP
[3] = target: T1, glycolipid transfer protein (GLTP); assay: X-ray crystal structure ([…] Å); tryptophan fluorescence Kd; set-up: recombinant human GLTP, His6- and S-tags removed by Factor Xa
[4] = target: T1, glycolipid transfer protein (GLTP); assay: X-ray crystal structure; set-up: recombinant human GLTP, His6- and S-tags removed by Factor Xa

CCCCCCCCCCCCC/C=C/[C@@H](O)[C@H](CO[C@@H]1O[C@H](CO)[C@@H](O[C@@H]2O[C@H](CO)[C@H](O)[C@H](O)[C@H]2O)[C@H](O)[C@H]1O)NC(=O)CCCCCCC [8:0 LacCer, N-octanoyl lactosylsphingosine]
Kd [1]: 0.2 µM

CCCCCCCC/C=C\CCCCCCCC(=O)N[C@@H](CO[C@@H]1O[C@H](CO)[C@@H](O[C@@H]2O[C@H](CO)[C@H](O)[C@H](O)[C@H]2O)[C@H](O)[C@H]1O)[C@H](O)/C=C/CCCCCCCCCCCCC [18:1 LacCer, N-cis-9-octadecenoyl lactosylsphingosine]
Kd [2]: 0.27 µM

CCCCC/C=C\C/C=C\CCCCCCCC(=O)N[C@@H](CO[C@@H]1O[C@H](CO)[C@H](O)[C@H](O)[C@H]1O)[C@H](O)/C=C/CCCCCCCCCCCCC [18:2 GalCer, N-cis-N-cis-9,12-octadecenoyl galactosyl-sphingosine]
Kd [1]: 0.2 µM

CCCCCCCC/C=C\CCCCCCCCCCCCCC(=O)N[C@@H](CO[C@@H]1O[C@H](CO)[C@H](O)[C@H](O)[C@H]1O)[C@H](O)/C=C/CCCCCCCCCCCCC [24:1 GalCer, N-cis-15-tetracosenoyl galactosyl-sphingosine]
Kd [3]: 0.25 µM

CCCCCCO[C@@H]1O[C@H](CO)[C@@H](O)[C@H](O)[C@H]1O [n-hexyl-β-D-glucoside]
X-ray crystal structure [4]: The sugar headgroup of n-hexyl-β-D-glucoside binds the GLTP recognition center in a manner similar to all GSL-GLTP complexes
